The test system of data set [1] is dba/2J-mdx mice. The experiment in a line: Quadriceps histology and immunofluorescence in dba/2J-mdx mice. It counts as in vivo, mouse.
Data set [2] relates to dba/2J-mdx mice. Description: Flow cytometry of muscle macrophages in dba/2J-mdx mice. It counts as in vivo, mouse.
Data set [3] relates to dba/2J-mdx mice. The experiment in a line: Cytokine array of quadriceps in dba/2J-mdx mice. As to conditions: treated vs non-treated mice. Format: in vivo, mouse.
In data set [4] the test system is myosin light chain 2 (p-MLC2). It counts as cell-based, human.
The test system of the next data set is RhoA pathway. The experiment in a line: RhoA downstream effectors in quadriceps of dba/2J-mdx mice (qPCR, IF). Format: in vivo, mouse. Background: Real-time PCR tracks product formation cycle by cycle.
Data set [5] has as its system FAPs. Format: cell-based, human. Conditions: for increase in FAPs proliferation: vs untreated FAPs.
Data set [6] has as its system FAPs. It counts as cell-based, human. As to conditions: for increase in FAPs migration: vs untreated FAPs.
The subject of data set [7] is dba/2J-mdx mice. The experiment in a line: Fasudil treatment of dba/2J-mdx mice: behaviour and weight. As to conditions: mouse, in vivo.
Data set [8] relates to FAPs. Format: cell-based, human.
For data set [9], the system named is FAPs.
In data set [10] the test system is FAPs. Format: cell-based, human. This is another data set of the same source.
The test system of data set [11] is dba/2J-mdx mice. Description: Grip strength test in dba/2J-mdx mice. Format: in vivo, mouse. Conditions: after six weeks of treatment, vs non-treated mice.
The next data set has as its system MLCK. Conditions: read-out: IC50 for MLCK; cited from earlier work.
The next data set has as its system PKA. As to conditions: cited from earlier work.
In another data set the test system is CaM kinase II. As to conditions: cited from earlier work.
The next data set relates to RhoA-GTP. It counts as cell-based, human. As to conditions: DMD-FAPs, PDGF-AA 50 ng/ml 20 min, vs untreated FAPs.

pIC50: −log10 of the molar value. Where “and” joins values, the source holds several entries; their conditions need not be identical. Equal values may be shown once. Entries after “also recorded” stand apart in the source; their conditions may differ. Read-outs that look alike come from different tables or passages of the source.

For orientation: pIC50 means the IC50 on a negative log10 scale, so that one unit is a factor of ten.

On to `O=S(=O)(c1cccc2cnccc12)N1CCCNCC1` [Fasudil, 5-(1,4-diazepan-1-ylsulfonyl)isoquinoline], for which the “reduction in collagen-I area in the quadriceps” value in the data set on dba/2J-mdx mice [1] (100 mg/kg/day orally 6 weeks) is on record as 23%. In addition, in the data set on dba/2J-mdx mice [1] (treated vs non-treated mice), the myofiber size result is reported as “significant increase”; the “neutrophil population in quadriceps” value was “trend towards a reduction”; the “number of T and B cells in quadriceps” value is recorded as “no changes”. Moreover, in the data set on dba/2J-mdx mice [1] (treated vs non-treated, not significant), the “decrease in the PDGFRα area (number of FAPs) in quadriceps” value is reported as 42%. For the same molecule, in the data set on dba/2J-mdx mice [1] (treated vs untreated mice), the “reduction of quadriceps area stained with F4/80 (macrophages)” value was 74%. In the data set with dba/2J-mdx mice [2] (flow cytometry, treated vs non-treated mice), the “decrease in the number of F4/80 positive cells” value came out at 18.3%. Moreover, the “reduction in the expression levels of CD163 marker in macrophages” value in the data set with dba/2J-mdx mice [2] (skeletal muscles of treated mice) stood at 31%. In addition, the “reduction in the expression levels of CD206 marker in macrophages” value in the data set on dba/2J-mdx mice [2] (treated mice) came out at 18%. Also, in the data set with dba/2J-mdx mice [2] (treated vs non-treated mice), the “expression levels or number of CD209 cells (M2 macrophages)” value is “did not observe any difference”; the “percentage of positive cells or expression of CD80 and DR (M1 markers)” value is “did not observe changes”. In the data set with dba/2J-mdx mice [2] (vs non-treated mice), the “lower number of CD163+ cells” value came to 3% and the “lower number of CD206+ cells” value is 10%. Moreover, the “TNFα, IL-4, IL-17, CXCL1, CXCL2, CXCL10, CCL2, CCL3 or CCL17 cytokine levels” value in the data set with dba/2J-mdx mice [3] is recorded as “reduction”. Moreover, in [4], the “effect on PDGF-AA-induced MLC2 phosphorylation” value is “reversed”. The “RhoA pathway downstream effector targets (ROCK2, LIMK2, FHOD1)” value with RhoA pathway (100 mg/kg/day orally 6 weeks) is recorded as “inhibited RhoA pathway”. Further, in the data set on RhoA pathway (treated vs untreated mice), the “protein expression of LIMK2” value was “significantly reduced” and the “protein expression of MLC2” value is given as “significantly reduced”. Also, in the data set on FAPs [5], the “decrease in proliferation rate” value is on record as 2.6 fold and the proliferation inhibition result is “lack of proliferation inhibition”. Also, in the data set with FAPs [6], the “reduction of migration rate” value was 2.43 fold and 4 fold. In the data set with dba/2J-mdx mice [7], the “behaviour during the treatment period (adverse effects)” value is listed as “did not experience any change in their behaviour” and the “body weight, treated vs untreated mice” value is “decrease in weight”. Moreover, the “release of collagen-I to the culture medium” value in the data set on FAPs [8] is recorded as “reversed”. In the data set with FAPs [9], the cell viability result was “did not affect cell viability; also recorded: neither C3-exoenzyme nor fasudil had any effect on cell viability”. The “polymerization of intracellular actin filaments” value in the data set on FAPs [10] is recorded as “impinged”. Besides, the “increase in forelimb strength” value in the data set on dba/2J-mdx mice [11] is listed as 1.76 fold.
Turning to “myosin light chain kinase inhibitor peptide, sequence RKKYKYRRK (SEQ ID NO:1) (MLCK inhibitor peptide 18) [MLCK18]”, in the data set with MLCK, the pIC50 was 7.30. Besides, in the data set on PKA, the “inhibition of PKA” value was “without inhibiting PKA”. Further, the “selectivity vs CaM kinase II” value in the data set with CaM kinase II is given as 4000 fold.
Regarding PDGF-AA, the “increase in MLC2 phosphorylation” value in data set [4] (DMD-FAPs treated with PDGF-AA) amounted to 2.3 fold. Moreover, the “increase in FAPs proliferation” value in the data set with FAPs [5] (48 hours) stood at 3.6 fold; in the data set on FAPs [5] (72 hours) it was 6 fold. The “increase in FAPs migration” value was determined as 2.48 fold in the data set on FAPs [6] (48 hours) and 3.37 fold with FAPs [6] (72 hours). The “increase in the RhoA-GTP levels” value in the data set on RhoA-GTP came out at 1.88 fold. Further, the “release of collagen-I to the culture medium” value in the data set on FAPs [8] (4 days treatment) is given as “increased non-significantly”. In the data set with FAPs [9], the cell viability result is given as “did not affect cell viability”. Besides, the “polymerization of intracellular actin filaments” value in the data set with FAPs [10] was “induced polymerization”.

The values are drawn from patent US20250312332A1, “TREATMENT OF MUSCLE FIBROSIS” (University of Newcastle upon Tyne, priority 2022, published 2025).
